In PubChem BioAssay AID2060889 (Molecular Pharmacology Branch, DTP, NCI, 2025):

System: LG0567-F671-PDC complex spheroids viability
Assay: Anticancer human tumor LG0567-F671-PDC patient-derived lung adenocarcinoma cell line growth inhibition [RAS]
Conditions: for IC50: curve of first compound; for viability, T/C: stronger effect = lower value
Method in brief: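 Multi-cell-type spheroids: tumor cells plus HUVEC endothelial cells and mesenchymal stem cells. RAS-pathway inhibitors were combined with targeted agents, each dosed in half-log steps down from clinical Cmax, or from 10 microM when Cmax was unknown.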

[1] = second compound 0.0316 µM, first compound 0.0316 µM
[2] = second compound 0.0316 µM, first compound 0.1 µM
[3] = second compound 0.0316 µM, first compound 0.316 µM
[4] = second compound 0.0316 µM, first compound 1 µM
[5] = second compound 0.0316 µM, first compound 3.16 µM
[6] = second compound 0.0316 µM, first compound 10 µM
[7] = second compound 0.1 µM, first compound 0.0316 µM
[8] = second compound 0.1 µM, first compound 0.1 µM
[9] = second compound 0.1 µM, first compound 0.316 µM
[10] = second compound 0.1 µM, first compound 1 µM
[11] = second compound 0.1 µM, first compound 3.16 µM
[12] = second compound 0.1 µM, first compound 10 µM
[13] = second compound 0.316 µM, first compound 0.0316 µM
[14] = second compound 0.316 µM, first compound 0.1 µM
[15] = second compound 0.316 µM, first compound 0.316 µM
[16] = second compound 0.316 µM, first compound 1 µM
[17] = second compound 0.316 µM, first compound 3.16 µM
[18] = second compound 0.316 µM, first compound 10 µM
[19] = second compound 1 µM, first compound 0.0316 µM
[20] = second compound 1 µM, first compound 0.1 µM
[21] = second compound 1 µM, first compound 0.316 µM
[22] = second compound 1 µM, first compound 1 µM
[23] = second compound 1 µM, first compound 3.16 µM
[24] = second compound 1 µM, first compound 10 µM
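Note: spheroids exposed to compound for seven days before readout.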
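Throughout, for IC50: luminescence signal used as a proxy for viable cells.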

## CC(=O)OC12COC1CC(O)C1(C)C(=O)C(O)C3=C(C)C(OC(=O)C(O)C(NC(=O)OC(C)(C)C)c4ccccc4)CC(O)(C(OC(=O)c4ccccc4)C21)C3(C)C (centres undefined) + C#Cc1c(F)ccc2cc(O)cc(-c3ncc4c(N5CC6CCC(C5)N6)nc(OCC56CCCN5CC(F)C6)nc4c3F)c12
Second compound 0.0316 µM
  IC50: < 31.6 nM
Second compound 0.1 µM
  IC50: < 31.6 nM
Second compound 0.316 µM
  IC50: < 31.6 nM
Second compound 1 µM
  IC50: < 31.6 nM
Second compound 3.16 µM
  IC50: < 31.6 nM
Second compound 10 µM
  IC50: < 31.6 nM
[1]
  viability, T/C: 44.2%
[2]
  viability, T/C: 43%
[3]
  viability, T/C: 53.7%
[4]
  viability, T/C: 60%
[5]
  viability, T/C: 66.5%
[6]
  viability, T/C: 65.3%
[7]
  viability, T/C: 45.7%
[8]
  viability, T/C: 40.1%
[9]
  viability, T/C: 53.2%
[10]
  viability, T/C: 56.7%
[11]
  viability, T/C: 64.5%
[12]
  viability, T/C: 59.4%
[13]
  viability, T/C: 34.9%
[14]
  viability, T/C: 37.8%
[15]
  viability, T/C: 45.4%
[16]
  viability, T/C: 49.1%
[17]
  viability, T/C: 60%
[18]
  viability, T/C: 43.8%
[19]
  viability, T/C: 26.7%
[20]
  viability, T/C: 24.8%
[21]
  viability, T/C: 31.1%
[22]
  viability, T/C: 37%
[23]
  viability, T/C: 43.8%
[24]
  viability, T/C: 30.8%
Second compound 3.16 µM, first compound 0.0316 µM
  viability, T/C: 16.1%
Second compound 3.16 µM, first compound 0.1 µM
  viability, T/C: 16.4%
Second compound 3.16 µM, first compound 0.316 µM
  viability, T/C: 19.9%
Second compound 3.16 µM, first compound 1 µM
  viability, T/C: 20.5%
Second compound 3.16 µM, first compound 3.16 µM
  viability, T/C: 23.9%
Second compound 3.16 µM, first compound 10 µM
  viability, T/C: 15.2%
Second compound 10 µM, first compound 0.0316 µM
  viability, T/C: 9.08%
Second compound 10 µM, first compound 0.1 µM
  viability, T/C: 7.93%
Second compound 10 µM, first compound 0.316 µM
  viability, T/C: 9.23%
Second compound 10 µM, first compound 1 µM
  viability, T/C: 8.41%
Second compound 10 µM, first compound 3.16 µM
  viability, T/C: 9.25%
Second compound 10 µM, first compound 10 µM
  viability, T/C: 5.64%

## CC(C)NCC(C(=O)N1CCN(c2ncnc3c2C(C)CC3O)CC1)c1ccc(Cl)cc1 (centres undefined) + C=CC(=O)N1CCN(c2nc(OCC3CCCN3C)nc3c(F)c(-c4nc(N)cc(C)c4C(F)(F)F)c(Cl)cc23)C(C)C1
Second compound 0.00316 µM
  IC50: < 31.6 nM
Second compound 0.01 µM
  IC50: < 31.6 nM
Second compound 0.0316 µM
  IC50: < 31.6 nM
Second compound 0.1 µM
  IC50: < 31.6 nM
Second compound 0.316 µM
  IC50: < 31.6 nM
Second compound 1 µM
  IC50: < 31.6 nM
Second compound 0.00316 µM, first compound 0.0316 µM
  viability, T/C: 16.6%
Second compound 0.00316 µM, first compound 0.1 µM
  viability, T/C: 18.9%
Second compound 0.00316 µM, first compound 0.316 µM
  viability, T/C: 14.9%
Second compound 0.00316 µM, first compound 1 µM
  viability, T/C: 10.8%
Second compound 0.00316 µM, first compound 3.16 µM
  viability, T/C: 10.3%
Second compound 0.00316 µM, first compound 10 µM
  viability, T/C: 9%
Second compound 0.01 µM, first compound 0.0316 µM
  viability, T/C: 17%
Second compound 0.01 µM, first compound 0.1 µM
  viability, T/C: 11.4%
Second compound 0.01 µM, first compound 0.316 µM
  viability, T/C: 10.8%
Second compound 0.01 µM, first compound 1 µM
  viability, T/C: 9.98%
Second compound 0.01 µM, first compound 3.16 µM
  viability, T/C: 8.68%
Second compound 0.01 µM, first compound 10 µM
  viability, T/C: 8.55%
[1]
  viability, T/C: 13.8%
[2]
  viability, T/C: 13.7%
[3]
  viability, T/C: 10.3%
[4]
  viability, T/C: 8.15%
[5]
  viability, T/C: 7.81%
[6]
  viability, T/C: 7.64%
[7]
  viability, T/C: 12.6%
[8]
  viability, T/C: 13.6%
[9]
  viability, T/C: 11.4%
[10]
  viability, T/C: 8.66%
[11]
  viability, T/C: 8.46%
[12]
  viability, T/C: 7.32%
[13]
  viability, T/C: 14.9%
[14]
  viability, T/C: 11.9%
[15]
  viability, T/C: 11.5%
[16]
  viability, T/C: 9.81%
[17]
  viability, T/C: 9.16%
[18]
  viability, T/C: 7.21%
[19]
  viability, T/C: 15.6%
[20]
  viability, T/C: 11.9%
[21]
  viability, T/C: 12.7%
[22]
  viability, T/C: 9.59%
[23]
  viability, T/C: 10%
[24]
  viability, T/C: 9.16%
